Results: patent US6946473B2, “Preparation and use of acetylenic ortho-sulfonamido and phosphinic acid amido bicyclic heteroaryl hydroxamic acids as TACE inhibitors” (priority 1999, dated 2005)

Experiments:
MMP-1 = biological target: T1, MMP-1 (Homo sapiens, UniProt P03956); assay: MMP-1 inhibition (thiopeptide or fluorescent peptide substrate); type: biochemical
T1 sequence (P03956 100-469): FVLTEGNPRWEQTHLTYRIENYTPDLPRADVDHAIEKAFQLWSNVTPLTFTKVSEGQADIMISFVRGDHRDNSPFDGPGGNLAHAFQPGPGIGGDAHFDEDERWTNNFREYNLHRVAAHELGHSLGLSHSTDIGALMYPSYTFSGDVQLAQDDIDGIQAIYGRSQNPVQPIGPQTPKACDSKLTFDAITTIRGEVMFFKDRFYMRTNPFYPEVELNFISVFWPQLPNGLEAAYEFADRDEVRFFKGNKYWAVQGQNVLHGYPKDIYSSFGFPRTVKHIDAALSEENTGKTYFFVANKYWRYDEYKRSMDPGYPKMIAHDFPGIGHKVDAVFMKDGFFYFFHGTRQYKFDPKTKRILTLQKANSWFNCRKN
Description: The enzyme activity is measured by the rate of the color increase. The thiopeptide substrate is made up fresh as a 20 mM stock in 100% DMSO and the DTNB is dissolved in 100% DMSO as a 100 mM stock and stored in the dark at room temperature. Both the substrate and DTNB are diluted together to 1 mM with substrate buffer (50 mM HEPES pH 7.5, 5 mM CaCl2) before use. The stock of enzyme is diluted with buffer (50 mM HEPES, pH 7.5, 5 mM CaCl2, 0.02% Brij) to the desired final concentration.
For either the thiopeptide or fluorescent peptide test procedures, the slope of the line is calculated and represents the reaction rate. The linearity of the reaction rate is confirmed (r^2>0.85). The mean (x±sem) of the control rate is calculated and compared for statistical significance (p<0.05) with drug-treated rates using Dunnett's multiple comparison test.

Row | SMILES | melting point [°C] | IC50 (MMP-1) [µM]
1 | CC#CCOc1ccc(S(=O)(=O)N(C)c2c(C(=O)NO)cnc3c2c(C)nn3C)cc1 [Example 7, 4-[(4-But-2-ynyloxy-benzenesulfonyl)-methyl-amino]-1,3-dimethyl-1H-pyrazolo[3,4-b]pyridine-5-carboxylic acid hydroxyamide] | 189 to 192 | 
2 | CC#CCOc1ccc(S(=O)(=O)N(C)c2c(C(=O)NO)cnc3snc(C)c23)cc1 [Example 13, 4-[(4-But-2-ynyloxy-benzenesulfonyl)-methyl-amino]-3-methyl-isothiazolo[5,4-b]pyridine-5-carboxylic acid hydroxyamide] | 183 to 184 | 
3 | CC#CCOc1ccc(S(=O)(=O)N(C)c2c(C(=O)NO)cnc3onc(C)c23)cc1 [Example 9, 4-[(4-But-2-ynyloxy-benzenesulfonyl)-methyl-amino]-3-methyl-isoxazolo[5,4-b]pyridine-5-carboxylic acid hydroxyamide] |  | 1.91
